The subject of this assay is HCV 1b RLuc cells (dicistronic genotype 1b Con1 replicon). Briefly: Renilla luciferase (RLuc)-based HCV replicon reporter assay. The format is cell-based, HCV genotype 1b. To be noted: Hepatitis C virus, 72 h, HCV 1b RLuc replicon, 72 hours; read-out: Activity (antiviral potency [EC50]). The method, boiled down:
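EC50 values were calculated by non-linear regression of Renilla luciferase signal from lysed cells after 72 h of compound exposure. Cells harboured a genotype 1b Con1 dicistronic replicon encoding RLuc. Compounds were serially diluted in DMSO from 10 mM stocks into culture media.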
(A replicon is a self-replicating genome or part of one, used to study replication in cells.)
Broadly, the EC50 is the concentration that produces a half-maximal response. With `COC(=O)N[C@H](C(=O)N1[C@@H]2CC[C@@H](C2)[C@H]1c1ncc(-c2ccc(-c3ccc(-c4cnc([C@@H]5[C@H]6CC[C@H](C6)N5C(=O)[C@@H](NC(=O)OC)C(C)C)[nH]4)cc3)cc2)[nH]1)C(C)C`, the EC50 was found to be 0.01 nM.
Take `COC(=O)N[C@H](C(=O)N1CCC[C@H]1c1ncc(-c2ccc(Oc3ccc(-c4cnc([C@@H]5CCCN5C(=O)[C@@H](NC(=O)OC)C(C)C)[nH]4)cc3)cc2)[nH]1)C(C)C`: the EC50 was more than 21.3 nM.
Then `COC(=O)N[C@H](C(=O)N1CCC[C@H]1c1ncc(-c2ccc(-c3cnc(-c4ccc(-c5cnc([C@@H]6CCCN6C(=O)[C@@H](NC(=O)OC)C(C)C)[nH]5)cc4)s3)cc2)[nH]1)C(C)C`, with 0.0385 nM.
For `COC(=O)N[C@H](C(=O)N1CCC[C@H]1c1ncc(-c2ccc(-c3ccc(-c4ccc(-c5cnc([C@@H]6CCCN6C(=O)[C@@H](NC(=O)OC)C(C)C)[nH]5)cc4)s3)cc2)[nH]1)C(C)C`, the EC50 is 0.0989 nM.
As for `COC(=O)N[C@H](C(=O)N1[C@@H]2CC[C@@H](C2)[C@H]1c1ncc(-c2ccc(-c3ccc4cc(-c5cnc([C@@H]6CC7(CC7)CN6C(=O)[C@@H](NC(=O)OC)C6CCOCC6)[nH]5)ccc4c3)cc2)[nH]1)C(C)C`, the figure is 0.0136 nM.
`COCC[C@H](NC(=O)OC)C(=O)N1CCS[C@H]1c1ncc(-c2ccc(-c3ccc4cc(-c5cnc([C@@H]6CC7(CC7)CN6C(=O)[C@@H](NC(=O)OC)C(C)C)[nH]5)ccc4c3)cc2)[nH]1`: the EC50 worked out at 0.0402 nM.
Then `COC[C@@H]1C[C@@H](c2ncc(-c3ccc(-c4ccc5cc(-c6cnc([C@@H]7CC8(CC8)CN7C(=O)[C@@H](NC(=O)OC)C(C)C)[nH]6)ccc5c4)cc3)[nH]2)N(C(=O)[C@@H](NC(=O)OC)C(C)C)C1`, with 0.0092 nM; and `COC(=O)N[C@H](C(=O)N1CC2(CC2)C[C@H]1c1ncc(-c2ccc3cc(-c4ccc(-c5cnc([C@@H]6SCCN6C(=O)[C@@H](NC(=O)OC)C(C)C)[nH]5)cc4)ccc3c2)[nH]1)C(C)C`, with 0.0192 nM; and `CC[C@H](NC(=O)OC)C(=O)N1CC2(CC2)C[C@H]1c1ncc(-c2ccc3cc(-c4ccc(-c5cnc([C@@H]6[C@H]7CC[C@H](C7)N6C(=O)[C@@H](NC(=O)OC)C(C)C)[nH]5)cc4)ccc3c2)[nH]1`, with 0.0181 nM.
As for `COC(=O)N[C@H](C(=O)N1CC2(CC2)C[C@H]1c1nc(-c2ccc3cc(-c4ccc(-c5cnc([C@@H]6SCCN6C(=O)[C@@H](NC(=O)OC)C6CCOCC6)[nH]5)cc4)ccc3c2)c[nH]1)C(C)C`, the figure is 0.132 nM; as for `COC(=O)N[C@H](C(=O)N1CC2(CC2)C[C@H]1c1ncc(-c2ccc3cc(-c4ccc(-c5cnc([C@@H]6CC7(CN6C(=O)[C@@H](NC(=O)OC)C(C)C)OCCO7)[nH]5)cc4)ccc3c2)[nH]1)C(C)C`, 0.0063 nM.
As for `CC[C@H](NC(=O)OC)C(=O)N1[C@@H]2CC[C@@H](C2)[C@H]1c1ncc(-c2ccc(-c3ccc4cc(-c5cnc([C@@H]6CC7(CC7)CN6C(=O)[C@@H](NC(=O)OC)C(C)C)[nH]5)ccc4c3)cc2)[nH]1`, the figure is 0.0086 nM.
In the case of `COC(=O)N[C@H](C(=O)N1[C@@H]2CC[C@@H](C2)[C@H]1c1ncc(-c2ccc(-c3ccc4cc(-c5cnc([C@@H]6CC7(CC7)CN6C(=O)[C@@H](NC(=O)OC)C(C)OC)[nH]5)ccc4c3)cc2)[nH]1)C(C)C` (stereo partly drawn), the EC50 was found to be 0.0077 nM.
For `COC(=O)N[C@H](C(=O)N1CC2(CC2)C[C@H]1c1ncc(-c2ccc3cc(-c4ccc(-c5cnc([C@@H]6[C@H]7CC[C@H](C7)N6C(=O)[C@@H](NC(=O)OC)C6CCOCC6)[nH]5)cc4)ccc3c2)[nH]1)C(C)C`, the EC50 was determined as 0.0115 nM.
As to `COC(=O)N[C@H](C(=O)N1CC2(CC2)C[C@H]1c1ncc(-c2ccc3cc(-c4ccc(-c5cnc([C@@H]6[C@H]7CC[C@H](C7)N6C(=O)[C@@H](NC(=O)OC)C6CCOCC6)[nH]5)cc4)ccc3c2)[nH]1)C1CCOCC1`, the EC50 came to 0.0255 nM.
With `COC(=O)N[C@H](C(=O)N1CC2(CC2)C[C@H]1c1ncc(-c2ccc3cc(-c4ccc(-c5cnc([C@@H]6[C@H]7CC[C@H](C7)N6C(=O)[C@@H](NC(=O)OC)C(C)(C)C)[nH]5)cc4)ccc3c2)[nH]1)C(C)C`, the concentration giving a half-maximal response (EC50) turned out to be 0.009 nM.
Then `COC(=O)N[C@H](C(=O)N1CC2(CC2)C[C@H]1c1ncc(-c2ccc(-c3ccc4cc(-c5cnc([C@@H]6CC7(CC7)CN6C(=O)[C@@H](NC(=O)OC)C(C)C)[nH]5)ccc4c3)cc2)[nH]1)C(C)C`, with 0.0048 nM.
Turning to `COC(=O)N[C@@H](CCC#N)C(=O)N1CC2(CC2)C[C@H]1c1ncc(-c2ccc3cc(-c4ccc(-c5cnc([C@@H]6[C@H]7CC[C@H](C7)N6C(=O)[C@@H](NC(=O)OC)C(C)C)[nH]5)cc4)ccc3c2)[nH]1`, the EC50 came out at 0.0159 nM.
`COC(=O)N[C@H](C(=O)N1CC2(CC2)C[C@H]1c1ncc(-c2ccc(-c3ccc4cc(-c5cnc([C@@H]6[C@H]7CC[C@H](C7)N6C(=O)[C@@H](NC(=O)OC)C(C)C)[nH]5)ccc4c3)cc2)[nH]1)C(C)C`: the EC50 was 0.0076 nM.
As for `COC(=O)N[C@H](C(=O)N1CC2(CC2)C[C@H]1c1ncc(-c2ccc(-c3ccc4cc(-c5cnc([C@@H]6[C@H]7CC[C@H](C7)N6C(=O)[C@@H](NC(=O)OC)C(C)(C)OC)[nH]5)ccc4c3)cc2)[nH]1)C(C)C`, the EC50 is 0.0155 nM.
Then `COCCO[C@H]1C[C@@H](c2ncc(-c3ccc(-c4ccc5cc(-c6cnc([C@@H]7CC8(CC8)CN7C(=O)[C@@H](NC(=O)OC)C(C)C)[nH]6)ccc5c4)cc3)[nH]2)N(C(=O)[C@@H](NC(=O)OC)C(C)C)C1`, with 0.0146 nM.
Regarding `COC(=O)N[C@H](C(=O)N1C[C@@H](Oc2cnccn2)C[C@H]1c1ncc(-c2ccc(-c3ccc4cc(-c5cnc([C@@H]6CC7(CC7)CN6C(=O)[C@@H](NC(=O)OC)C(C)C)[nH]5)ccc4c3)cc2)[nH]1)C(C)C`, the EC50 came to 0.014 nM.
As for `COC(=O)N[C@H](C(=O)N1CC2(CC2)C[C@H]1c1ncc(-c2ccc(-c3ccc4cc(-c5cnc([C@@H]6[C@H]7CC[C@H](C7)N6C(=O)[C@@H](NC(=O)OC)C6CC6)[nH]5)ccc4c3)cc2)[nH]1)C(C)C`, the figure is 0.0534 nM; as for `COC(=O)N[C@H](C(=O)N1[C@@H]2CC[C@@H](C2)[C@H]1c1ncc(-c2ccc3cc(-c4ccc(-c5cnc([C@@H]6CC7(CC7)CN6C(=O)[C@@H](NC(=O)OC)C6CC6)[nH]5)cc4)ccc3c2)[nH]1)C(C)C`, 0.286 nM; as for `COC(=O)N[C@@H](CCOC(F)F)C(=O)N1[C@@H]2CC[C@@H](C2)[C@H]1c1ncc(-c2ccc(-c3ccc4cc(-c5cnc([C@@H]6CC7(CC7)CN6C(=O)[C@@H](NC(=O)OC)C(C)C)[nH]5)ccc4c3)cc2)[nH]1`, 0.008 nM.
Then `COC(=O)N[C@H](C(=O)N1CC2(CC2)C[C@H]1c1ncc(-c2ccc3cc(-c4ccc(-c5cnc([C@@H]6[C@H]7CC[C@H](C7)N6C(=O)[C@@H](NC(=O)OC)C(C)OC)[nH]5)cc4)ccc3c2)[nH]1)C(C)OC` (stereo partly drawn), with 0.0201 nM; and `COC(=O)N[C@H](C(=O)N1[C@@H]2CC[C@@H](C2)[C@H]1c1ncc(-c2ccc(-c3ccc4cc(-c5cnc([C@@H]6CC7(CC7)CN6C(=O)[C@@H](NC(=O)OC)C(C)C)[nH]5)ccc4c3)cc2)[nH]1)c1ccccc1`, with 0.0071 nM.
`COC(=O)N[C@H](C(=O)N1CC2(CC2)C[C@H]1c1ncc(-c2ccc3cc(-c4ccc(-c5cnc([C@@H]6[C@H]7CC[C@H](C7)N6C(=O)[C@H](NC(=O)OC)c6ccccc6)[nH]5)cc4)ccc3c2)[nH]1)C(C)C`: the concentration giving a half-maximal response (EC50) was 0.0261 nM.
For `COC(=O)N[C@@H](CCOC(F)F)C(=O)N1CC2(CC2)C[C@H]1c1ncc(-c2ccc3cc(-c4ccc(-c5cnc([C@@H]6[C@H]7CC[C@H](C7)N6C(=O)[C@@H](NC(=O)OC)C(C)C)[nH]5)cc4)ccc3c2)[nH]1`, the EC50 is 0.0114 nM.
For `COC[C@H]1C[C@@H](c2ncc(-c3ccc(-c4ccc5cc(-c6cnc([C@@H]7CC8(CC8)CN7C(=O)[C@@H](NC(=O)OC)C(C)C)[nH]6)ccc5c4)cc3)[nH]2)N(C(=O)[C@@H](NC(=O)OC)C(C)C)C1`, the EC50 worked out at 0.0073 nM.
Then `CC[C@H](C)[C@H](NC(=O)OC)C(=O)N1CCC[C@H]1c1ncc(C#Cc2ccc3cc(-c4cnc([C@@H]5CCCN5C(=O)[C@@H](NC(=O)OC)[C@@H](C)CC)[nH]4)ccc3c2)[nH]1`, with 0.0147 nM; and `COC(=O)NC(C(=O)N1CCC[C@H]1c1ncc(-c2ccc(-c3ccc4cc(-c5cnc([C@@H]6CCCN6C(=O)[C@@H](NC(=O)OC)C(C)C)[nH]5)ccc4c3)cc2)[nH]1)c1ccccc1` (stereo partly drawn), with 0.0097 nM.
As to `COC(=O)NC(C(=O)N1CC2(CC2)C[C@H]1c1ncc(-c2ccc3cc(-c4ccc(-c5cnc([C@@H]6[C@H]7CC[C@H](C7)N6C(=O)[C@@H](NC(=O)OC)C(C)C)[nH]5)cc4)ccc3c2)[nH]1)c1ccccc1` (stereo partly drawn), the EC50 was determined as 0.0145 nM.
As for `COC(=O)N[C@H](C(=O)N1[C@@H]2CC[C@@H](C2)[C@H]1c1ncc(-c2ccc(-c3ccc4cc(-c5cnc([C@@H]6CC7(CC7)CN6C(=O)[C@H](NC(=O)OC)c6ccccc6)[nH]5)ccc4c3)cc2)[nH]1)C(C)C`, the figure is 0.0394 nM; as for `COC(=O)N[C@H](C(=O)N1CC2(CC2)C[C@H]1c1ncc(-c2ccc3cc(-c4ccc(-c5cnc([C@@H]6[C@H]7CC[C@H](C7)N6C(=O)[C@@H](NC(=O)OC)C(C)(C)OC)[nH]5)cc4)ccc3c2)[nH]1)C(C)C`, 0.0145 nM; as for `COC(=O)N[C@H](C(=O)N1CC2(CC2)C[C@H]1c1ncc(-c2ccc3cc(-c4ccc(-c5cnc([C@@H]6CCCN6C(=O)[C@@H](NC(=O)OC)C(C)OC)[nH]5)cc4)ccc3c2)[nH]1)C(C)C` (stereo partly drawn), 0.0074 nM.
Then `COC(=O)N[C@@H](CCC(F)(F)F)C(=O)N1CCC[C@H]1c1ncc(-c2ccc(-c3ccc(-c4cnc([C@@H]5CCCN5C(=O)[C@@H](NC(=O)OC)C(C)C)[nH]4)cc3)cc2)[nH]1`, with 0.04 nM; and `COC(=O)N[C@@H](CCC(F)(F)F)C(=O)N1CCC[C@H]1c1ncc(-c2ccc(-c3ccc(-c4cnc([C@@H]5CCCN5C(=O)[C@H](CCC(F)(F)F)NC(=O)OC)[nH]4)cc3)cc2)[nH]1`, with 0.0635 nM.
As for `COC(=O)N[C@H](C(=O)N1CCC[C@H]1c1ncc(-c2ccc(-c3ccc(-c4cnc([C@@H]5CC6(CCC6)ON5C(=O)[C@@H](NC(=O)OC)C(C)C)[nH]4)cc3)cc2)[nH]1)C(C)C`, the figure is 0.0083 nM.

Values taken from US8822430B2 (Gilead Sciences, Inc., priority 2009, dated 2014).
